SMILES strings stand for the structures. Like-named read-outs stand apart in the source and are kept apart here.

What all share (assay): NADPH oxidation at […] nm, Michaelis-Menten fit
Common to all, as to format: biochemical, Aspergillus niger
What all share (conditions): 0.2 mM NADPH, HEPES pH 7.0

For assay [1], the system named is T1, SrdE.
T1 construct: cDNA in pET-28a(+), His-tag purified from E. coli

Assay [2] concerns T2, XyrB.
T2 construct: recombinant plasmid from a previous study, His-tag purified from E. coli

Assay [3] deals with T3, SrdB.
T3 construct: cDNA in pET-28a(+), His-tag purified from E. coli

Consider `OC1OC[C@@H](O)[C@H](O)[C@H]1O` (stereo partly drawn) [D-xylose], for which the Km in assay [1] (read-out: D-xylose / Km) amounted to 1.1 mM; in assay [2] (read-out: D-xylose / Km), 3 mM; in assay [3] (read-out: D-xylose / Km), 2.8 mM.

Turning to `OC1OC[C@H](O)[C@H](O)[C@H]1O` (stereo partly drawn) [L-arabinose], the results for the Km in assay [1] (read-out: L-arabinose / Km), in assay [2] (read-out: L-arabinose / Km) and in assay [3] (read-out: L-arabinose / Km) were 4.3 mM, 12.3 mM and 4.5 mM, respectively.

These data come from PMC10744612, “Genome Mining Reveals a Surprising Number of Sugar Reductases in Aspergillus niger” (Journal of Fungi, 2023).
